These results are taken from patent publication US20130338457A1, “METHOD AND APPARATUS FOR DETECTING DISEASES ASSOCIATED WITH THE EYE” (THE REGENTS OF THE UNIVERSITY OF MICHIGAN, priority 2007, published 2013).

Common to all, as to format: cell-based
The subject of one test is human retina cells. Description: FA production in fresh human retina pieces ex vivo. The settings on record: FIG. 25; for FA production with apoptotic stimulus: human retina pieces. The protocol:
(§1) To provide an in vitro correlate of the imaging method described above, studies were pursued of: RPE cells in vitro and fresh pieces of rat and human retina ex vivo. Both retinal fragments and RPE cells serve as good in vitro models of the human retina. To model the apoptotic events taking place in the eye, apoptotic stimuli (H2O2 and ceramide) were added to these samples. These stimuli are particularly judicious choices because both oxidative molecules and ceramide have been reported to be key mediators of retinal apoptosis.
(§2) At lethal levels, FA correlates with apoptosis measured by TUNEL and other assays.

The next test has as its system rat neural retina cells. Nature of the test: FA production in fresh rat retina pieces ex vivo. The settings on record: FIG. 26; for FA production with apoptotic stimulus: rat neural retina. The protocol:
as §1, §2

The test system of test [1] is human retinal pigment epithelial (HRPE) cells. Description: Flavoprotein autofluorescence (FA) measurement in cultured HRPE cells. The settings on record: for FA after exposure to pro-apoptotic agent: exposure for 2 hours, H2O2 0.2 mM, C2-ceramide 50 μM. The protocol:
HRPE cells were isolated from donor eyes by enzymatic digestion as previously described. Briefly, the sensory retina was separated gently from the HRPE monolayer, and the HRPE cells were removed from Bruch's membrane using one hour incubation with papain. Isolated HRPE cells were grown into Falcon Primaria flasks in DMEM/F12 containing 10% fetal bovine serum (FBS), penicillin G (100 U ml-1), streptomycin sulfate (100 μg ml-1), and amphotericin B (0.25 μg ml-1) at 37° C. in a humidified incubator under 5% CO2. In all experiments, parallel assays were performed on the second to fourth passage of HRPE cells. HRPE cells were seeded into tissue culture 96-well assay plates (black walls with clear bottoms (Costar) at the same time and density from the same parent cultures, and grown in phenol red-free complete DMEM/F12 for at least 7 days. All experiments were repeated at least three times on different cell lines.
HRPE cells in 96-well plates were washed with Hanks' balanced salt solution (HBSS), containing Ca2+ and Mg2+, without phenol red. […] Other HRPE cells in 96-well plates were pre-incubated for 30 minutes with or without dihydroceramide C2 (50 μM), followed by stimulation with C2-ceramide (50 μM) for 2 hours in the presence and absence of the same inhibitor used during pre-incubation.
FA was measured with a photomicroscope equipped with narrow bandwidth excitation and emission filters of 465 nm and 535 nm, respectively.

Another test relates to human neural retina. Nature of the test: Cell Death Detection ELISA of neural retinal apoptosis. The protocol:
To evaluate neural retinal apoptosis, pieces of human neural retina were analyzed by using a Cell Death Detection […] kit. This photometric enzyme immunoassay provides the quantitative in vitro determination of cytoplasmic histone-associated DNA fragments (mono- and oligonucleosomes) after induced cell death (shown in FIG. 24).

Consider `CCCCCCCCCCCCC/C=C/[C@@H](O)[C@H](CO)NC(C)=O` [C2-ceramide], for which the “FA production with apoptotic stimulus” value in the test on human retina cells and in the test with rat neural retina cells was “elevated flavoprotein autofluorescence (FA)” in each case. The “FA after exposure to pro-apoptotic agent” value in test [1] (HRPE cells) is reported as “significantly elevated FA”.
On to `c1ccc2c(c1)[I+]c1ccccc1-2` [DPI], for which the “Effect of toxins on FA signal” value in test [1] was “abrogate the FA signal”.
`CC(=O)N[C@@H](CS)C(=O)O` [N-acetyl-cysteine]: the “Effect on hydrogen peroxide-induced FA production” value in the test with human retina cells (human retina cells) and with rat neural retina cells (rat neural retina cells) was “attenuated” in each case. In the test with human neural retina (FIG. 24), the “Effect on cell death by hydrogen peroxide” value was “attenuated”. Also, in test [1] (HRPE cells, NAC 1 mM, 30 minutes pre-incubation), the “Effect on hydrogen peroxide-induced FA elevations” value was “completely blocked FA elevations”.
Regarding `CCCCCCCCCCCCCCC[C@@H](O)[C@H](CO)NC(C)=O` [dihydroceramide C2], the “Effect on ceramide-induced FA increases” value in test [1] (HRPE cells, dihydroceramide C2 50 μM, 30 minutes pre-incubation) is reported as “completely blocked FA increases”.
Turning to `OO` [hydrogen peroxide], the “FA production with apoptotic stimulus” value with human retina cells is listed as “induced”; in the test with human retina cells (listed as H2O2) it was “elevated flavoprotein autofluorescence (FA)”; with rat neural retina cells, “induced”; in the test on rat neural retina cells (listed as H2O2), “elevated flavoprotein autofluorescence (FA)”. The “Neural retinal apoptosis, avarage (cytoplasmic histone-associated DNA fragments)” value with human neural retina (6 hr, H2O2 200, NAC 1 mM, control 1.0000) is 4.3610. The “Cell death induced by agent” value in the test on human neural retina (FIG. 24) is on record as “increased”. In test [1] (HRPE cells), the “FA after exposure to pro-apoptotic agent” value was “significantly elevated FA”.
